Where two headings read alike, the source gives them in different places.
Assays:
Experiment in all cases: Kinase panel profiling at 1 µmol/L (MSA or IMAP), percentage inhibition
Type in all cases: biochemical
[1] = biological target: panel of 255 wild-type kinases (Homo sapiens, UniProt Q9Y6M4); conditions: read-out: %-inhibition at 1 µmol/L, CK1γ3
[2] = biological target: T1, panel of 255 wild-type kinases (Homo sapiens, UniProt P51955); conditions: read-out: %-inhibition, NEK2
T1 sequence (P51955 1-445): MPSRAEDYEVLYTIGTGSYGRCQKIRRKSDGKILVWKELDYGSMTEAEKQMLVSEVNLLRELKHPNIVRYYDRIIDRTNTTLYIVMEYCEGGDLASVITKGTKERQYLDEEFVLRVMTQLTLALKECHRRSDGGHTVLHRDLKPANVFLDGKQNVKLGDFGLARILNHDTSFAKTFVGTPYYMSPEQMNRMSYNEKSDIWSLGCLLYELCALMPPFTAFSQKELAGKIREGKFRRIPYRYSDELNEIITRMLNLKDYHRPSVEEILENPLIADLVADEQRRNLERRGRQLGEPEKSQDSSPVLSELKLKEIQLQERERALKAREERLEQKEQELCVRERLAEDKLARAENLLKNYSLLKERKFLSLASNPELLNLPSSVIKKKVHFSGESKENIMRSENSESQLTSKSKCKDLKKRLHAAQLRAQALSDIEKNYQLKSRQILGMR

[3] = biological target: panel of 255 wild-type kinases (Homo sapiens, UniProt Q9HBH9); conditions: read-out: %-inhibition, MNK2
[4] = biological target: T2, panel of 255 wild-type kinases (Homo sapiens, UniProt P52333); conditions: read-out: %-inhibition at 1 µmol/L, JAK3
T2 sequence (P52333 1-1124): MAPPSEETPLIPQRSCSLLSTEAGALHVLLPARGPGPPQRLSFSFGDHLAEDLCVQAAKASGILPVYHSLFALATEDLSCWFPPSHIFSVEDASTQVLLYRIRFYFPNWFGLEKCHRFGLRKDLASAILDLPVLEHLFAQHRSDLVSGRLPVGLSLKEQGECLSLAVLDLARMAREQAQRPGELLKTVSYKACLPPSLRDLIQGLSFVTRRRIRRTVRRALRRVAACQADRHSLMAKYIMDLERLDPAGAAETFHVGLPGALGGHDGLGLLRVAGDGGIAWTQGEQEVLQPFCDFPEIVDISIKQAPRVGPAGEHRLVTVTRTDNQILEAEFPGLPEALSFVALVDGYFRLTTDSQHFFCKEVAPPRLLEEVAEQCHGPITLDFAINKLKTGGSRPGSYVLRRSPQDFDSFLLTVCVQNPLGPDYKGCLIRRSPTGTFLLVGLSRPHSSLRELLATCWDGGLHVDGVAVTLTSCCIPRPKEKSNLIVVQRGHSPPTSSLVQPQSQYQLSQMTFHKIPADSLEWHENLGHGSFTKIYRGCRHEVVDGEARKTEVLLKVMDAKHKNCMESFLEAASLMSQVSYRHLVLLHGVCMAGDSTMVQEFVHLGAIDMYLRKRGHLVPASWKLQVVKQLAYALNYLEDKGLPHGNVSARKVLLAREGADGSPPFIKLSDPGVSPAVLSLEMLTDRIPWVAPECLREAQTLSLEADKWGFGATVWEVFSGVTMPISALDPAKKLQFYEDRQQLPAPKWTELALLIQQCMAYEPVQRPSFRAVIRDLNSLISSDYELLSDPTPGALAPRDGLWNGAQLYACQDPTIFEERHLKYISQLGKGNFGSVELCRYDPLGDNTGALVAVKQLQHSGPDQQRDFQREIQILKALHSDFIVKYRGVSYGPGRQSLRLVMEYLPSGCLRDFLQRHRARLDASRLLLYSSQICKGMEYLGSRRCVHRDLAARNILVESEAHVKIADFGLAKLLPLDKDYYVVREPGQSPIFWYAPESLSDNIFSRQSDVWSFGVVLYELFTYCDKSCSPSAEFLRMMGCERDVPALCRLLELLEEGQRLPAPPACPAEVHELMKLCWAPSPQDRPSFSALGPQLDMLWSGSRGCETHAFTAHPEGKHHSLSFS

[5] = biological target: panel of 255 wild-type kinases (Homo sapiens, UniProt P51957); conditions: read-out: %-inhibition, NEK4
[6] = biological target: T3, panel of 255 wild-type kinases (Homo sapiens, UniProt P29323); conditions: read-out: %-inhibition at 1 µmol/L, EPHB2
T3 sequence (P29323 19-1055): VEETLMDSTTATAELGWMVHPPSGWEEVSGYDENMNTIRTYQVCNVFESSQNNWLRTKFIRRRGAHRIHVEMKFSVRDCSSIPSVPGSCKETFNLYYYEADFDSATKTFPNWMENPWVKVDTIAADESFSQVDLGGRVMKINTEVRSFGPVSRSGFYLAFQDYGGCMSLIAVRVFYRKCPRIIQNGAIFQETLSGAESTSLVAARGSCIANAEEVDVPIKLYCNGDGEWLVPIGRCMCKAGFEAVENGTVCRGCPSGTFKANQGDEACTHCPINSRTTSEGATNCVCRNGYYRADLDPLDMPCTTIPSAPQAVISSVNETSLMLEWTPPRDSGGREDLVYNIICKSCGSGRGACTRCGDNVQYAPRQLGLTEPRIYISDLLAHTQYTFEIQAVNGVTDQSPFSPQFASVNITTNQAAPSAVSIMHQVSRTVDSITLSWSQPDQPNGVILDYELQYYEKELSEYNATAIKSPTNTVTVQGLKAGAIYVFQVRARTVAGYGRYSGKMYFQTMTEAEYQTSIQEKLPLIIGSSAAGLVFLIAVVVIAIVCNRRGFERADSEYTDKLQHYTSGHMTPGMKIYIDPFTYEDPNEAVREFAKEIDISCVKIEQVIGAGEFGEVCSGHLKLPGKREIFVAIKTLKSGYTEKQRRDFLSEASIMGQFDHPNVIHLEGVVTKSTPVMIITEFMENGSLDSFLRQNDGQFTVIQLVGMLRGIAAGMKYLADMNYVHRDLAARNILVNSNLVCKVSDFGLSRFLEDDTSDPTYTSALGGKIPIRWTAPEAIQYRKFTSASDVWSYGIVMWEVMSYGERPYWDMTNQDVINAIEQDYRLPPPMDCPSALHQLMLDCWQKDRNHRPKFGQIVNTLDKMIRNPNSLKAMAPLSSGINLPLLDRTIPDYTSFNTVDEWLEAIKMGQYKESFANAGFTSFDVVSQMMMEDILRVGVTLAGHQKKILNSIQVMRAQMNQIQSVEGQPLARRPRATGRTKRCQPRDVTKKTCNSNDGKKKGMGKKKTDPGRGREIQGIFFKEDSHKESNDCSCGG

[7] = kinase CK1γ3, 1 µmol/L single concentration
[8] = NEK2, 1 µmol/L single concentration
[9] = MNK2, 1 µmol/L single concentration
[10] = kinase JAK3, 1 µmol/L single concentration
[11] = NEK4, 1 µmol/L single concentration
[12] = kinase EPHB2, 1 µmol/L single concentration

Compound | inhibition at 1 µM [1, 7] [%] | inhibition at 1 µM [2, 8] [%] | inhibition at 1 µM [3, 9] [%] | inhibition at 1 µM [4, 10] [%] | inhibition at 1 µM [5, 11] [%] | inhibition at 1 µM [6, 12] [%] | inhibition at 1 µM [1] [%] | inhibition at 1 µM [2] [%] | inhibition at 1 µM [3] [%] | inhibition at 1 µM [4] [%] | inhibition at 1 µM [5] [%] | inhibition at 1 µM [6] [%]
Cc1nc(NC(=O)N2CCC[C@H]2C(N)=O)sc1-c1ccnc(C(C)(C)C(F)(F)F)c1 [alpelisib] | -2 | 7.4 | 8 | 0.447 | -3 | 1.07 |  |  |  |  |  | 
Cn1cc(-c2cc3c(N4CCN(c5ncc([C@@](C)(N)c6ccc(F)cc6)cn5)CC4)ncnn3c2)cn1 [avapritinib] | 10 | 9 | 29 | 64 | 12 | 31 |  |  |  |  |  | 
Cn1cnc2c(F)c(Nc3ccc(Br)cc3F)c(C(=O)NOCCO)cc21 [binimetinib] | 2.67 | 0.117 | -13 | -0.365 | -1.67 | 3.33 |  |  |  |  |  | 
CNC(=O)c1ccc(-c2cnc3ncc(Cc4ccc5ncccc5c4)n3n2)cc1F [capmatinib] |  |  |  |  |  |  | -1.65 | 2.36 | -4 | 3.32 | 2 | -5
COc1cc2ncnc(Nc3ccc(F)c(Cl)c3)c2cc1NC(=O)/C=C/CN1CCCCC1 [dacomitinib] | -23 | -2.41 | 76 | 28 | -2.15 | 51 |  |  |  |  |  | 
C[C@H](Nc1ncnc2nc[nH]c12)c1cc2cccc(Cl)c2c(=O)n1-c1ccccc1 [duvelisib] | -0.689 | 9 | 7 | 3 | -2.34 | 2 |  |  |  |  |  | 
COC(=O)N[C@@H](C)CNc1nccc(-c2cn(C(C)C)nc2-c2cc(Cl)cc(NS(C)(=O)=O)c2F)n1 [encorafenib] | 10 | 2.77 | -3.42 | 2.28 | 4.44 | 5.43 |  |  |  |  |  | 
CN1CCN(c2ccc(C(=O)Nc3n[nH]c4ccc(Cc5cc(F)cc(F)c5)cc34)c(NC3CCOCC3)c2)CC1 [entrectinib] | 0.879 | 11 | 0.904 | 97 | 1.25 | 64 |  |  |  |  |  | 
CCc1nc(C(N)=O)c(Nc2ccc(N3CCC(N4CCN(C)CC4)CC3)c(OC)c2)nc1NC1CCOCC1 [gilteritinib] | 11 | 38 | 89 | 91 | 50 | 75 |  |  |  |  |  | 
CCN1CCN(c2ccc(Nc3cc(N(C)C(=O)Nc4c(Cl)c(OC)cc(OC)c4Cl)ncn3)cc2)CC1 [infigratinib] | -1.16 | 27 | -1.83 | 7 | 13 | -0.114 |  |  |  |  |  | 
O=C(Nc1cnn2ccc(N3CCC[C@@H]3c3cc(F)ccc3F)nc12)N1CC[C@H](O)C1 [larotrectinib] | -0.832 | -0.367 | -8.51 | 6 | 0.695 | -0.574 |  |  |  |  |  | 
C[C@H]1Oc2cc(cnc2N)-c2c(nn(C)c2C#N)CN(C)C(=O)c2ccc(F)cc21 [lorlatinib] | -1 | 10 | 13 | 6.62 | -0.571 | 14 |  |  |  |  |  | 
CCN1C(=O)N(c2c(F)c(OC)cc(OC)c2F)Cc2cnc3[nH]c(CN4CCOCC4)cc3c21 [pemigatinib] | -1.18 | -2 | -7.4 | 0.2 | 6.33 | -0.799 |  |  |  |  |  | 
FC(F)(F)c1ccc(CNc2ccc(Cc3c[nH]c4ncc(Cl)cc34)cn2)cn1 [pexidartinib] | -0.557 | -0.918 | 48 | 40 | 2.69 | 8 |  |  |  |  |  | 
CO[C@]1(C(=O)N[C@@H](C)c2ccc(-n3cc(F)cn3)nc2)CC[C@H](c2nc(C)cc(Nc3cc(C)[nH]n3)n2)CC1 [pralsetinib] | 0.449 | 7.4 | 2 | 96 | 2.56 | 35 |  |  |  |  |  | 
CCn1c(=O)c(-c2cc(NC(=O)Nc3ccccc3)c(F)cc2Br)cc2cnc(NC)cc21 [ripretinib] | -8 | -0.18 | 5 | 7 | 19 | 75 |  |  |  |  |  | 
COc1ccc(CN2C3CC2CN(c2ccc(-c4cc(OCC(C)(C)O)cn5ncc(C#N)c45)cn2)C3)cn1 [selpercatinib] | 12 | 2 | 37 | 27 | 0.858 | 64 |  |  |  |  |  | 
Cn1cnc2c(F)c(Nc3ccc(Br)cc3Cl)c(C(=O)NOCCO)cc21 [selumetinib] | -1 | 9 | -0.47 | 6 | 3.45 | -0.445 |  |  |  |  |  | 

Source: paper PMC9516332 (Frontiers in Oncology, 2022)
